Measured values published in PMC9388906, “Dual inhibition of the Echinococcus multilocularis energy metabolism” (Frontiers in Veterinary Science, 2022).
Read-outs that look alike come from different tables or passages of the source.

Key:
[1] = system: E. multilocularis metacestodes; assay: Succinate concentrations in culture supernatants (malate dismutation activity); format: cell-based, Echinococcus multilocularis; details: 10 μM, 5 days
Procedure: Both compounds were tested either alone or in combination at 10 μM with the above-described PGI assay for 5 days for their activity against E. multilocularis metacestodes. PGI assays were done in triplicates and two times independently. […] To assess direct effects on the MD, succinate levels were measured in the supernatants of the PGI assay, as described below. To determine whether differences between groups were significant, data was subjected to student's t-test analysis and P-values below 0.05 are given.
Succinate measurements in supernatants of drug-treated E. multilocularis metacestodes was performed with the “Succinic Acid Assay Kit” (Megazyme, Bray, Ireland). […] 20 μL of each diluted (1:20) sample or standard was used in triplicate for succinate measurements in 96-well plates (flat bottom, Greiner Bio-One GmbH, Frickenhausen, Germany). The reaction mix buffer was prepared as described in the supplier manual: per well 180 μL H2O, 20 μL solvent 1 (buffer, pH 8.4, sodium azide 0.02% w/v), 20 μL solvent 2 (NADH plus stabilizer), 20 μL solvent 3 (ATP, PEP, and CoA) and 2 μL solvent 4 (pyruvate kinase plus L-lactate dehydrogenase suspension) were added. After a 180 s pre-incubation time, a first measurement at 340 nm was done on an EnSpire multilabel plate reader (PerkinElmer Life Sciences, Schwerzenbach, Switzerland). 10 μL solvent 5 (succinyl-CoA synthetase suspension; 1:10 diluted) were then added to each well and the plate was read at 340 nm for 1 h every minute. […] Succinate levels are shown as mean values with standard deviations of biological triplicates. To determine whether differences between groups were significant, data was subjected to student's t-test analysis and P-values below 0.05 are given.

[2] = system: E. multilocularis metacestodes; assay: PGI assay, single and combination treatment under normoxic and anaerobic conditions; format: cell-based, Echinococcus multilocularis; details: 5 days
Procedure: (§1) The PGI assay measures the amount of PGI that metacestodes release into the medium when damaged ([17], [32]). The purification and in vitro drug incubation of E. multilocularis metacestodes was conducted according to Stadelmann et al. ([32]). In short, cultures were applied for in vitro drug testing at the age of 6-8 weeks. E. multilocularis metacestodes were therefore purified by the addition of 2% saccharose and washed extensively with PBS. Purified metacestodes were suspended 1:3 with DMEM (without phenol red, supplemented with 100 U/mL penicillin, 100 μg/mL streptomycin) and distributed in 48-well plates (1 mL/well, thus 300 μL pure metacestode vesicles per well). […] The corresponding DMSO concentration was used as negative control and Tx-100 (0.1% final concentration) was used for total damage (positive control). […] After 5 days, relative PGI activities were measured and calculated as percentage of the Tx-100 control as described previously in Rufener et al. ([17]). They were calculated as mean values and standard deviations for each triplicate. EC50 calculations were calculated based on logit-log transformed values in Microsoft Office Excel 2010. EC50 measurements were performed twice, and averages and standard deviations of these repeated tests are given.
For double inhibition of the mitochondrial energy pathways of E. multilocularis, quinazoline as an inhibitor of the anaerobic MD ([29]) was applied in combination with ELQ-400 as an inhibitor of the ETC. Both compounds were tested either alone or in combination at 10 μM with the above-described PGI assay for 5 days for their activity against E. multilocularis metacestodes. PGI assays were done in triplicates and two times independently. […] Results of the assays were calculated as mean values and standard deviations for each biological triplicate were calculated as relative percentage to the Tx-100 control. To assess direct effects on the MD, succinate levels were measured in the supernatants of the PGI assay, as described below. […]

[3] = system: mitochondrial bc1 complex of E. multilocularis GL cells; assay: Seahorse oxygen consumption rate assay; format: cell-based, Echinococcus multilocularis; details: 1 μM; succinate as initial electron donor; restored by ascorbate/TMPD, not by succinate or glycerol 3-phosphate
Procedure: To measure effects of ELQ-400 on the oxygen consumption rate (OCR), Seahorse assay was conducted according to the method established by Rufener et al. ([17]) and according to the manual for Seahorse XFp Extracellular Flux Analyzer (Agilent Technologies, Bucher Biotec, Basel, Switzerland). E. multilocularis GL cells were isolated and prepared the day before. Cells were centrifuged and resuspended in Mitochondrial Assay Solution (MAS) solution (220 mM mannitol, 70 mM sucrose, 10 mM KH2PO4, 5 mM MgCl2, 2 mM HEPES, and 1 mM EGTA pH 7.2). This cell suspension was centrifuged again and the pellet was resuspended in assay-buffer (MAS, 10 mM succinate, 2 μM rotenone, 4 mM ADP, and 3.6 nM PMP). 100 units of GL cells were distributed to each well of a Seahorse XFp miniplate (Agilent Technologies) pre-coated with CellTak according to the instruction manual (Fisher Scientific, Schwerte, Germany). Two wells were used as blanks with assay buffer without cells. ELQ-400 (1 μM) was diluted in MAS solution and loaded to the delivery ports of the sensor cartridge of the first injection (or DMSO as a control). In the second injection, succinate (10 mM), glycerol 3-phosphate (10 mM), or ascorbate (20 mM) with TMPD (0.6 mM) was added. […] Each drug setup was tested in triplicates and the read-out and analysis was done using the software Wave (Agilent Technologies, Bucher Biotec, Basel, Switzerland). […]

[4] = system: Reuber rat hepatoma (Rh) cells; assay: Mammalian cell toxicity, Alamar Blue assay; format: cell-based; details: Alamar blue, 5 days, range tested 30–0.23 μM, mean (SD) of two tests
Procedure: Compounds were added in a serial dilution (30–0.23 μM, 1:2 dilution steps) and in triplicates. Plates were incubated at 37°C, 5% CO2 and humid atmosphere for 5 days. Resazurin was added to a final concentration of 10 mg/L to each well, and fluorescence measured at 530 nm on an Enspire multilabel plate reader over 3 h. By using Microsoft Office Excel 2010 and a logit-log transformation of the relative growth, IC50 values were calculated. The test was performed twice for each compound, and respective averages and standard deviations are given.

[5] = system: E. multilocularis metacestodes (isolate Sval); assay: PGI assay (damage marker release), metacestodes, isolate Sval; format: cell-based, Echinococcus multilocularis; details: isolate Sval, 10 μM
Procedure: To assess the in vitro efficacy of ELQs against E. multilocularis, (a) the damage-marker phosphoglucose isomerase (PGI) assay was applied against metacestodes, and (b) the germinal layer (GL) cell viability assay was applied to measure effects on isolated GL cells. Both assays are described in more detail below. The drug testing strategy was as follows: PGI assay was first conducted for overview screening at 10 μM with the parasite isolates H95 and Sval. The GL cell viability assay was performed at 0.1 μM with both isolates H95 and Sval.
as §1, with “EC50 calculations were calculated based on logit-log transformed values in Microsoft Office Excel 2010.” left out

Cc1[nH]c2cc(F)cc(F)c2c(=O)c1-c1ccc(Oc2ccc(OC(F)(F)F)cc2)cc1 [ELQ-400]
Release of succinate by metacestodes compared to DMSO control ([1]; anaerobic): significantly enhanced
Release of succinate by metacestodes compared to DMSO control ([1]; normoxic): significantly enhanced
PGI release of metacestodes relative to Tx-100 ([2]; 10 μM each, anaerobic (0% O2)): significantly reduced
PGI release of metacestodes relative to Tx-100 ([2]; 10 μM, normoxic (21% O2)): active
Oxygen consumption rate (OCR) of GL cells [3]: immediate reduction of the OCR
IC50 ([4]; confluent Rh cells, read-out: IC50 Rh confluent): > 30000 nM
IC50 ([4]; preconfluent Rh cells, read-out: IC50 Rh preconfluent): 1460 nM
Metacestodes, PGI assay, relative to positive control Tx-100 ([5]; 5 days, normoxic, mean (SD) of triplicates, active if >20%): 27 (10.5) %
Activity in PGI assay (activity call) ([5]; threshold >20% of Tx-100): activity
